Test results as given in patent US11066381B2, “Urolithins-containing aqueous solution, dried solid composition thereof and production method therefor, and urolithins stabilizing method” (DAICEL CORPORATION, priority 2016, dated 2021).

Assay: Stability improvement test for urolithin (residual ratio by HPLC after storage at 60° C.)
Type: physicochemical
Settings: for Urolithin A residual ratio (%) (60° C.) 1 week later / Urolithin A residual ratio (%) (60° C.) 2 weeks later: aqueous solution with 10% ethanol, 10% glycerin, 0.005% urolithin A; for Urolithin A residual ratio (%) (60° C.) 1 week later: stored at 60° C. for 1 week; for Urolithin A residual ratio (%) (60° C.) 2 weeks later: stored at 60° C. for 2 weeks
Procedure: The stability of urolithin can be studied by measuring the total amount of urolithin before storage and the total amount of urolithin after storage under a temperature condition of 60° C. for one week or two weeks, and then calculating the urolithin residual ratio (%) according to the following calculation equation. As the method for measuring urolithin, for example, the method using HPLC described in Examples can be used. Urolithin residual ratio (%)=(total amount of urolithin after storage/total amount of urolithin before storage)×100 [Calculation Equation]
A description is given below for a case where urolithin A was used as the urolithin. Analysis of urolithin A was carried out using HPLC. More specifically, urolithin A (manufactured by Dalton Farma) was dissolved in an appropriate solvent to prepare a solution, and the solution was analyzed under the following HPLC conditions. Using the purity (%) (A) and the peak area value (B) in the HPLC, the factor of urolithin A and the urolithin A concentration in the sample were calculated according to the following calculation equation (1) and calculation equation (2). (Calculation Equation for Factor of Urolithin A) Factor of urolithin A=(B)/(concentration of standard solution of urolithin A (mg/L)×(A)/100) (1) (Calculation Equation for Urolithin A Concentration in Sample) Urolithin A concentration in sample (mg/L)=peak area value of urolithin A in sample/factor of urolithin A (2)
To an aqueous solution containing 10% ethanol and 10% glycerin, urolithin A was added to a concentration of 0.005%, and then the urolithin A was dissolved therein. To this solution, collagen (Hanamai) was added to a concentration of 0.5% to prepare a urolithin A-containing aqueous solution. The urolithin A content in the urolithin A-containing aqueous solution was measured after one week of storage and after two weeks of storage under a temperature condition of 60° C. By comparing the urolithin A contents measured before and after the storage, the residual ratio was calculated to evaluate the stability.
The same operation as in Example 1 was carried out except that collagen was not added, to provide a control as Comparative Example 1.
The residual ratio of urolithin A was calculated according to the following calculation equation (3). Urolithin residual ratio (%)=(content of urolithin A after storage/content of urolithin A before storage)×100 (3)

[1] = collagen 0% (Comparative Example 1)

## O=c1oc2cc(O)ccc2c2ccc(O)cc12 [Urolithin A, urolithin A]
[1]
  Urolithin A residual ratio (%) (60° C.) 1 week later: 66.9%
  Urolithin A residual ratio (%) (60° C.) 2 weeks later: 45.0%
Collagen 0.5% (Example 1)
  Urolithin A residual ratio (%) (60° C.) 1 week later: 92.4%
  Urolithin A residual ratio (%) (60° C.) 2 weeks later: 92.2%
In the presence of collagen versus without collagen, storage at 60° C.
  stability of urolithin A: increases in the presence of collagen
